Laboratory results from patent US8653075B2, “Therapeutic methods employing substituted piperidines which are CCR3 antagonists” (Boehringer Ingelheim International GmbH, priority 2009, dated 2014).
pKi: −log10 of the molar value.

Biological target: T1, human chemokine receptor CCR3 (Homo sapiens, UniProt P51677)
T1 construct: expressed in transfected cells; host or cells: K562 cell line (hCCR3-C1 cells), membrane preparation
T1 sequence (P51677 1-355): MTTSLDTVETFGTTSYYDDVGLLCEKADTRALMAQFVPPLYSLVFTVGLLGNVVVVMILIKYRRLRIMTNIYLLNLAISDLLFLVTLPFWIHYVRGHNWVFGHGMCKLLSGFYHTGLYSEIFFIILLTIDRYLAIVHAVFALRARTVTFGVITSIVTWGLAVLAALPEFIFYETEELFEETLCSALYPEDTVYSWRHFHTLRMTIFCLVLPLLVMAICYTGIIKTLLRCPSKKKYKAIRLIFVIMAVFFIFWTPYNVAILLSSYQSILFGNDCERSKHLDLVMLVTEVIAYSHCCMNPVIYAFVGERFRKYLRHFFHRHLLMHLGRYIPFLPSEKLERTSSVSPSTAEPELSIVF
Assay: CCR3 receptor binding assay (SPA, 125I-eotaxin-1 displacement, hCCR3-C1 K562 cell membranes)
Settings: human Eotaxin-1 at human CCR3-Rezeptor; for inhibition at 1 µM: 1 μM test compound, read-out: CCR3 % inh @ 1 μM; for pKi: dose range 0.1 to 10000 nM
Description: The CCR3 receptor binding test is based on a K562 cell line (leukemia myelogenic blast cells) transfected with the human chemokine receptor CCR3 (hCCR3-C1 cells). The cell membranes were prepared by disrupting the hCCR3-C1 cells by […]. The preparation was centrifuged at 400 g 4° C. for 30 min. The supernatant was transferred into fresh tubes followed by a second centrifugation at 48000 g, 4° C. for 1 h. The membranes were re-suspended in the SPA incubation buffer (25 mM HEPES, 25 mM MgCl2 6×H2O, 1 mM CaCl2 2×H2O) without bovine serum albumin and homogenized by passing through a single use needle (Terumo, 23Gx1″). The membranes were stored in aliquots at −80° C.
The CCR3 receptor binding assay was performed in a Scintillation Proximity Assay (SPA) design with the radioligand recombinant human ^125Iodine-eotaxin-1. Cell membranes of hCCR3 C1 cells were again homogenized by passing through a single use needle (Terumo, 23Gx1″) and diluted in SPA incubation buffer in suitable concentrations (0.5-10 μg protein/well) in 96 well microtiter plates (1450-514, Perkin Elmer). The SPA assay was set up in the SPA incubation buffer with a final volume of 200 μl and final concentration of 25 mM HEPES, 25 mM MgCl2 6×H2O, 1 mM CaCl2 2×H2O and 0.1% bovine serum albumin. The SPA assay mixture contained 60 μl of the membrane suspension, 80 μl of Wheat Germ Agglutinin coated PVT beads (organic scintillator, GE Healthcare, RPNQ-0001) 0.2 mg/well), 40 μl of recombinant human ^125Jodine-eotaxin-1 (Biotrend), diluted in SPA buffer to a final concentration of 30.000 dpm per well, and 20 μl of the test compound (dissolved in DMSO dilutions). The SPA assay mixture was incubated for 2 h at room temperature. Bound radioactivity was determined with a scintillation counter (Micro Beta “Trilux”, Wallac). Included were controls for total binding (no displacer added, Bo) and non-specific binding (NSB) by adding unlabelled recombinant human Eotaxin-1 (Biotrend, Cat #300-21) or a reference compound.
Determination of the affinity of a test compound was calculated by subtraction of the non-specific binding (NSB) from the total binding (Bo) or the binding in the presence of the test compound (B) at a given compound concentration. […] The Bo-NSB value was set to 0% inhibition.
% inhibition and Ki values are (human Eotaxin-1 at human CCR3-Rezeptor): […]

Row | inhibition at 1 µM [%] | pKi | SMILES
1 | 98 | 7.74 | CCn1cc(NC(=O)[C@H]2CCC(=O)N2C2CCN(Cc3ccc(Cl)c(C)c3)CC2)cc1C(=O)OC [Example 91]
2 | 99 | 7.89 | CNC(=O)c1cc(NC(=O)[C@H]2CCC(=O)N2C2CCN(Cc3ccc(Cl)c(C)c3)CC2)cc(OC)c1 [Example 174]
3 | – | 8.22 | Cc1cc(CN2CCC(N3C(=O)CC[C@@H]3C(=O)Nc3cc(-c4c(C)noc4C)ccn3)CC2)ccc1Cl [Example 192]
4 | 95 | 8.15 | CNC(=O)c1cc(NC(=O)[C@H]2CCC(=O)N2C2CCN(Cc3ccc(Cl)c(C)c3)CC2)cc(C(C)(C)C)c1 [Example 172]
5 | 60 | 6.26 | Cc1cc(CN2CCC(N3C(=O)CC[C@@H]3C(=O)Nc3ccc4c(c3)CC(N(C)C)C4)CC2)ccc1Cl (stereo partly shown) [Example 64]
6 | – | 7.89 | Cc1cc(-c2nc[nH]n2)cc(NC(=O)[C@H]2CCC(=O)N2C2CCN(Cc3ccc(Cl)c(C)c3)CC2)n1 [Example 210]
7 | 100 | 7.96 | Cc1cc(CN2CCC(N3C(=O)CC[C@@H]3C(=O)Nc3cc(F)cc(C(=O)N(C)C)c3)CC2)ccc1Cl [Example 176]
8 | 99 | 8.40 | Cc1cc(NC(=O)[C@H]2CCC(=O)N2C2CCN(Cc3ccc(Cl)c(C)c3)CC2)cc(-c2nnnn2C)c1 [Example 114]
9 | 99 | 8.40 | Cc1cc(CN2CCC(N3C(=O)CC[C@@H]3C(=O)Nc3cc(Cl)cc(C(=O)N(C)C)c3)CC2)ccc1Cl [Example 168]
10 | 101 | 8.40 | Cc1cc(CN2CCC(N3C(=O)CC[C@@H]3C(=O)Nc3cccc(-c4nnnn4C)c3)CC2)ccc1Cl [Example 1]
11 | 99 | 7.89 | Cc1cc(CN2CCC(N3C(=O)CC[C@@H]3C(=O)Nc3cc(C(N)=O)cc(C(=O)N(C)C)c3)CC2)ccc1Cl [Example 107]
12 | 75 | 6.69 | CCOC(=O)Cc1csc(NC(=O)[C@H]2CCC(=O)N2C2CCN(Cc3ccc(Cl)c(C)c3)CC2)n1 [Example 98]
13 | 99 | 8.22 | Cc1cc(NC(=O)[C@H]2CCC(=O)N2C2CCN(Cc3ccc(Cl)c(C)c3)CC2)cc(C(=O)N(C)CCO)c1 [Example 175]
14 | 89 | 7.02 | Cc1cc(-c2nnnn2C)cc(NC(=O)[C@H]2CCC(=O)N2C2CCN(Cc3ccc(Cl)c(C)c3)CC2)n1 [Example 196]
15 | 97 | 8.00 | CNC(=O)c1cc(C)nc(NC(=O)[C@H]2CCC(=O)N2C2CCN(Cc3ccc(Cl)c(C)c3)CC2)c1 [Example 150]
16 | 100 | 8.10 | CCc1cc(C(=O)N(C)C)cc(NC(=O)[C@H]2CCC(=O)N2C2CCN(Cc3ccc(Cl)c(C)c3)CC2)n1 [Example 184]
17 | 95 | 7.54 | CCOC(=O)c1cc(NC(=O)[C@H]2CCC(=O)N2C2CCN(Cc3ccc(Cl)c(C)c3)CC2)no1 [Example 93]
18 | 97 | 7.54 | Cc1cc(CN2CCC(N3C(=O)CC[C@@H]3C(=O)Nc3cccc(-c4cnco4)c3)CC2)ccc1Cl [Example 28]
19 | 80 | 7.74 | Cc1cc(C(=O)N(C)C)cc(NC(=O)[C@H]2CCC(=O)N2C2CCN(Cc3ccc(Cl)c(Cl)c3)CC2)n1 [Example 115]
20 | 100 | 8.22 | CNC(=O)c1sc(NC(=O)[C@H]2CCC(=O)N2C2CCN(Cc3ccc(Cl)c(C)c3)CC2)nc1C [Example 190]
21 | 80 | 6.80 | Cc1cc(CN2CCC(N3C(=O)CC[C@@H]3C(=O)Nc3cccnc3)CC2)ccc1Cl [Example 36]

Second part, the compound before the results:

Row | SMILES | inhibition at 1 µM [%] | pKi
22 | CNC(=O)c1cccc(NC(=O)[C@H]2CCC(=O)N2C2CCN(Cc3ccc(Cl)s3)CC2)c1 [Example 206] | 77 | 6.45
23 | Cc1cc(CN2CCC(N3C(=O)CC[C@@H]3C(=O)N3Cc4ccccc4C3)CC2)ccc1Cl [Example 63] | 60 | 6.29
24 | CC(=O)Nc1nc2c(s1)-c1cc(NC(=O)[C@H]3CCC(=O)N3C3CCN(Cc4ccc(Cl)c(C)c4)CC3)ccc1CC2 [Example 10] | 98 | 7.80
25 | Cc1cc(CN2CCC(N3C(=O)CC[C@@H]3C(=O)Nc3cccc(C(=O)N(C)CCO)c3)CC2)ccc1Cl [Example 159] | 96 | 7.72
26 | Cc1cc(CN2CCC(N3C(=O)CC[C@H]3C(=O)NCc3noc(C4CCCC4)n3)CC2)ccc1Cl [Example 47] | 31 | 5.93
27 | Cc1cc(CN2CCC(N3C(=O)CC[C@@H]3C(=O)Nc3cccc(C(=O)NCC(C)C)c3)CC2)ccc1Cl [Example 137] | 101 | 8.40
28 | COc1cccc2c1CN(C(=O)[C@@H]1CCC(=O)N1C1CCN(Cc3ccc(Cl)c(C)c3)CC1)CC2 [Example 55] | 78 | 6.63
29 | Cc1cc(CN2CCC(N3C(=O)CC[C@@H]3C(=O)Nc3cccc(S(=O)(=O)N4CCCCC4)c3)CC2)ccc1Cl [Example 22] | 84 | 7.89
30 | COc1ccc(NC(=O)[C@H]2CCC(=O)N2C2CCN(Cc3ccc(Cl)c(C)c3)CC2)cc1C(=O)N(C)C [Example 179] | 95 | 7.47
31 | CN1C[C@H](C(=O)Nc2cc(C3CC3)nn2C)N(C2CCN(Cc3ccc(Cl)c(C(F)(F)F)c3)CC2)C1=O [Example 199] | 66 | 6.34
32 | Cc1cc(CN2CCC(N3C(=O)N(C)C[C@@H]3C(=O)Nc3cccc(-c4cscn4)c3)CC2)ccc1Cl [Example 121] | 98 | 7.68
33 | Cc1cc(CN2CCC(N3C(=O)OC[C@H]3C(=O)Nc3cc(C4CC4)nn3C)CC2)ccc1Cl [Example 117] | 98 | 7.77
34 | CNC(=O)c1cccc(NC(=O)[C@H]2CN(C)C(=O)N2C2CCN(Cc3ccc(Cl)c(C)c3)CC2)c1 [Example 131] | 89 | 7.07
35 | Cc1cc(CN2CCC(N3C(=O)CC[C@@H]3C(=O)Nc3cccc(C(=O)N(C)C(C)C)c3)CC2)ccc1Cl [Example 133] | 100 | 8.52
36 | Cc1cc(CN2CCC(N3C(=O)CC[C@@H]3C(=O)Nc3cc(C(=O)N(C)CCO)cc(C(C)(C)C)c3)CC2)ccc1Cl [Example 170] | 100 | 8.22
37 | CNC(=O)c1cccc(NC(=O)[C@H]2CCC(=O)N2C2CCN(Cc3ccc(Cl)cc3)CC2)c1 [Example 201] | 86 | 6.92
38 | Cc1cc(CN2CCC(N3C(=O)CC[C@@H]3C(=O)Nc3cccc(CNC(=O)NC4CCCCC4)c3)CC2)ccc1Cl [Example 39] | 80 | 6.64
39 | Cc1cc(CN2CCC(N3C(=O)OC[C@H]3C(=O)Nc3ccc4ncsc4c3)CC2)ccc1Cl [Example 118] | 94 | 7.40
40 | Cc1cc(CN2CCC(N3C(=O)CC[C@@H]3C(=O)Nc3cc(C(=O)N4CCOCC4)ccn3)CC2)ccc1Cl [Example 160] | 97 | 7.72
41 | Cc1cc(CN2CCC(N3C(=O)N(C)C[C@@H]3C(=O)Nc3cccc(-c4cc[nH]n4)c3)CC2)ccc1Cl [Example 123] | 95 | 7.47
42 | CNC(=O)c1cc(NC(=O)[C@H]2CCC(=O)N2C2CCN(Cc3ccc(Cl)c(C)c3)CC2)cc(C(=O)NC)c1 [Example 7] | 97 | 8.15
43 | CNC(=O)c1cccc(N(C)C(=O)[C@H]2CCC(=O)N2C2CCN(Cc3ccc(Cl)c(C)c3)CC2)c1 [Example 166] | 60 | 6.04
44 | Cc1cc(CN2CCC(N3C(=O)CC[C@H]3C(=O)NCc3ccccc3)CC2)ccc1Cl [Example 46] | 44 | 6.06
45 | CNC(=O)c1cccc(NC(=O)[C@H]2CCC(=O)N2C2CCN(Cc3ccc(F)cc3)CC2)c1 [Example 202] | 69 | 6.41
